Ends that are not written are not given here.
Tests used:
[1] = system: Npvf mRNA in hypothalamus; experiment: CL 316,243 or saline administration for 7 days at 29° C., Npvf mRNA in hypothalamus by qRT-PCR; format: in vivo, mice (C57BL/6J); settings: one week administration, 1 mg/kg of body weight, subcutaneous, mice at 29° C.
Protocol: Total RNA was isolated from adipose tissue, liver and hypothalamus using TRI Reagent and BCP phase separation reagent (Molecular Research Center Inc. Cincinnati, Ohio, United States). RNA was further purified by using the RNAeasy minikit (QIAGEN, Valencia, Calif., United States) and stored at −80° C. in RNase-free H2O with addition of SUPERase-In (Ambion, Austin, Tex., United States) for RNase protection. Quality and quantity of RNA was determined using UV spectrophotometry (Nanodrop) and agarose gel visualization of intact RNA. Quantitative RT-PCR using TaqMan probes and primers (Applied Biosystems, Foster City, Calif., United States) was performed with standard curves generated using pooled RNA isolated from corresponding tissues collected from eight 8 week old C57BL/6J.+/+ mice. Probe and primer sequences used to perform the analyses are available upon request. All the gene expression data were normalized to the level of cyclophilin b.
To establish the influence of different ambient temperature on Npvf expression mice were kept in climate-controlled rodent incubators. To evaluate the effects of the β adrenergic receptor agonist on Ucp1 and Npvf, thermoneutrally acclimated mice were injected subcutaneously with 1 mg kg^−1 […] or saline for 7 days.
All mice used in the following studies were adult wild-type C57BL/6J+/+ mice. […]

[2] = molecular target: T1, rat orphan 7TM GPCR (OT7T022, GPR147, NPFFR1) (Rattus norvegicus, UniProt Q9EP86); settings: synthetic RFRPs; cited from earlier work
T1 construct: expressed in transfected cells; host or cells: CHO cells
T1 sequence (Q9EP86 whole entry): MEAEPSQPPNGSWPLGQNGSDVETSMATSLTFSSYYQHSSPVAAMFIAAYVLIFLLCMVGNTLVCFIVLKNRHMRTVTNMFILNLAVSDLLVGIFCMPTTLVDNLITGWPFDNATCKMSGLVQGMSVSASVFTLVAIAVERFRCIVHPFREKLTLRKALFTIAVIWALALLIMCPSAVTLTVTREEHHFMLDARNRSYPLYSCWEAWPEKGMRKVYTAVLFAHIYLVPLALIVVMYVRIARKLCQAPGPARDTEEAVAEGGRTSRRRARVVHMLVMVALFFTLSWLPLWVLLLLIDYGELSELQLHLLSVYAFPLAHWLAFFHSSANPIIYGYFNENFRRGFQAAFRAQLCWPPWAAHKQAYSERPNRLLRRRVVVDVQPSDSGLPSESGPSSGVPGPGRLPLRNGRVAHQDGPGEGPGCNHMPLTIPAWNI

[3] = system: NPFF receptors (NPFF1 and NPFF2 subtypes); settings: cited from earlier work
NPFFR1 = NPFFR1 (Homo sapiens, UniProt Q9GZQ6); settings: cited from earlier work
Sequence of NPFFR1 (Q9GZQ6 whole entry, species assumed): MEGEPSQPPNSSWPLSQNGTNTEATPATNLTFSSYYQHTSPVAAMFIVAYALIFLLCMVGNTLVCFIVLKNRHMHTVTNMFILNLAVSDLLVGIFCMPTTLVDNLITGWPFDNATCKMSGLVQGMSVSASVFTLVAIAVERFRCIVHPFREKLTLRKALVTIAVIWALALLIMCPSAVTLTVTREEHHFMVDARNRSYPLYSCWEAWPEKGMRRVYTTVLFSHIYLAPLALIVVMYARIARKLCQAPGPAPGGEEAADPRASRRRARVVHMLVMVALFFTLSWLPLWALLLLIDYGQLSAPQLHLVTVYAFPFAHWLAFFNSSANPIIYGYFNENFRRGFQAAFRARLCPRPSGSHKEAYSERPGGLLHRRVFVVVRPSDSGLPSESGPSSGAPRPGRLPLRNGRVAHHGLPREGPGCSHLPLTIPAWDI

C[C@H](Cc1ccc2c(c1)OC(C(=O)[O-])(C(=O)[O-])O2)NC[C@H](O)c1cccc(Cl)c1.[Na+].[Na+] [CL 316,243]
suppression of Npvf mRNA in hypothalamus compared to saline-treated control mice [1]: did not result in the suppression of Npvf mRNA in hypothalamus

RFRP-1: RFamide-related peptide derived from Npvf precursor; human sequence MPHSFANLPLRF-NH(2) (SEQ ID NO: 1) (MPHSFANLPLRF-NH2; listed as Homo sapiens)
response of GPR147-transfected CHO cell lines [2]: responded specifically

NC(=O)[C@H](Cc1ccccc1)NC(=O)[C@H](CCCN=C(N)N)NC(=O)C12CC3CC(CC(C3)C1)C2 [RF9, adamantylcarbonyl-arginyl-phenylalaninamide]
discrimination between NPFF1 and NPFF2 subtypes [3]: does not distinguish between the NPFF1 and NPFF2 subtypes
selectivity for NPFF receptors [3]: selective for NPFF receptors

RFRP-3: RFamide-related peptide derived from Npvf precursor; human sequence VPNLPQRF-NH(2) (SEQ ID NO: 2)
response of GPR147-transfected CHO cell lines [2]: responded specifically

NC(N)=NCCC[C@@H](NC(=O)C(c1ccccc1)c1ccccc1)C(=O)NCc1ccc(O)cc1 [BIBP3226]
binding to NPFFR1 (NPFFR1): has been shown to bind to NPFFR1
